From ChEMBL document CHEMBL3797167, “Development of a peptide-based inducer of nuclear receptors degradation” (Bioorg Med Chem Lett, 2016)
Blank lines part the entries; values can stand above or below the compound they belong to. The source made the active and inactive calls. The calls are words filed in the database; no cut-off is given here.

What was measured:
[1] = target: T1, Estrogen receptor (Homo sapiens) (UniProt P03372); assay: Induction of ERalpha degradation in human MCF7 cells after 6 hrs by Western blot analysis; type: cell-based
T1 sequence (whole entry): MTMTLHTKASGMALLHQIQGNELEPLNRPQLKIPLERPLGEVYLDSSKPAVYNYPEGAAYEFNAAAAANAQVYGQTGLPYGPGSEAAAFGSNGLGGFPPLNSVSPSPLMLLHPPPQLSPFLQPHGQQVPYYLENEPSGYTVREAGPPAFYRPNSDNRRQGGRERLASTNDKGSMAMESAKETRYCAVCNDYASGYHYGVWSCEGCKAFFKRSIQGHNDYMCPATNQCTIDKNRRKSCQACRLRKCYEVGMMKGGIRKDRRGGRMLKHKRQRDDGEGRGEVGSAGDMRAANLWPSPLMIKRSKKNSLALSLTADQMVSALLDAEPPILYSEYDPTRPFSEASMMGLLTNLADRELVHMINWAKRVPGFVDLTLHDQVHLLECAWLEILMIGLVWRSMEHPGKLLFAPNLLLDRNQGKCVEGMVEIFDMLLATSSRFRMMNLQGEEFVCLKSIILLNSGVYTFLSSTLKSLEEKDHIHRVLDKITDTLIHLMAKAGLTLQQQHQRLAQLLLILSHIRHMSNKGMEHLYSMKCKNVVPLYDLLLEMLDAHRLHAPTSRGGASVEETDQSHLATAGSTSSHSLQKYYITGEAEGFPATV

[2] = target: T2, Androgen receptor (Homo sapiens) (UniProt P10275); assay: Induction of AR degradation in human MCF7 cells assessed as AR/actin ratio level at 3 uM after 6 hrs by Western blot analysis (reference value: 100%); type: cell-based
T2 sequence (whole entry): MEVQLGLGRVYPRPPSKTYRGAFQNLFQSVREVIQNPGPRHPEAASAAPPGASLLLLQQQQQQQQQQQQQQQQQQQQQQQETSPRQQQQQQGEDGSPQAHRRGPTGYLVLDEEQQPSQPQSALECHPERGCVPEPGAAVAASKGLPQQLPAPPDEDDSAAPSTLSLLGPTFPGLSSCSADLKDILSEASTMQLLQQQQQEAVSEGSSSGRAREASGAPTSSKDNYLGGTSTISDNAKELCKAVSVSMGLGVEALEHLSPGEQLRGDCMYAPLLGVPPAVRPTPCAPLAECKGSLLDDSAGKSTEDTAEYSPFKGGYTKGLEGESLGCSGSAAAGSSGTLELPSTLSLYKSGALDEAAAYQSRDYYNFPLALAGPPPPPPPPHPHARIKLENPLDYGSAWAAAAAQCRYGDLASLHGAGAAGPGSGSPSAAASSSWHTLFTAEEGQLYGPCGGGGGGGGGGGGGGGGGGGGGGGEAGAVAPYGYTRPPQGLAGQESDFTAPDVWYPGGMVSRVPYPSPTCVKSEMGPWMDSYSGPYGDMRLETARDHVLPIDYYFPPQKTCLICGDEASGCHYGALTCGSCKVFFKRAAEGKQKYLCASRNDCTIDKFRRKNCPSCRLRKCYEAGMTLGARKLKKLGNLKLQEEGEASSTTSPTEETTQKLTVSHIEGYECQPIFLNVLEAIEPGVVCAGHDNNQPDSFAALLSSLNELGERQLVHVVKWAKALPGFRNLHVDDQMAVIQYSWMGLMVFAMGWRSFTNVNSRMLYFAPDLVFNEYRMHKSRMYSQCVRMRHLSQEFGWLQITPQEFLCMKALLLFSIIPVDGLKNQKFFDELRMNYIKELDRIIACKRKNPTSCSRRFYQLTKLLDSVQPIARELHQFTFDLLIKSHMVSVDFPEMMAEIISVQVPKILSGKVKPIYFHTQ

[3] = target: T2, Androgen receptor (Homo sapiens); assay: Induction of AR degradation in human MCF7 cells at 3 to 6 uM after 6 hrs by Western blot in presence of MG132; type: cell-based
[4] = target: T1, Estrogen receptor (Homo sapiens); assay: Induction of ERalpha degradation in human MCF7 cells assessed as ERalpha/actin ratio level at 6 uM after 6 hrs by Western blot analysis (reference value: 100%); type: cell-based
[5] = target: T2, Androgen receptor (Homo sapiens); assay: Induction of AR degradation in human MCF7 cells assessed as AR/actin ratio level at 6 uM after 6 hrs by Western blot analysis (reference value: 100%); type: cell-based
[6] = target: T2, Androgen receptor (Homo sapiens); assay: Induction of AR degradation in human MCF7 cells at 3 to 6 uM after 6 hrs by Western blot analysis; type: cell-based
[7] = target: Aryl hydrocarbon receptor (Homo sapiens) (UniProt P35869); assay: Induction of AhR degradation in human MCF7 cells assessed as AhR/actin ratio level at 3 uM after 6 hrs by Western blot analysis (reference value: 100%)
[8] = target: Aryl hydrocarbon receptor (Homo sapiens) (UniProt P35869); assay: Induction of AhR degradation in human MCF7 cells assessed as AhR/actin ratio level at 4.5 uM after 6 hrs by Western blot analysis (reference value: 100%)
[9] = system: MCF7; assay: Cytotoxicity against human MCF7 cells at >6 uM after 6 hrs; type: cell-based; details: mcf7, 6 h
[10] = target: T1, Estrogen receptor (Homo sapiens); assay: Induction of ERalpha degradation in human MCF7 cells assessed as ERalpha/actin ratio level at 3 uM after 6 hrs by Western blot analysis (reference value: 100%); type: cell-based
[11] = target: Aryl hydrocarbon receptor (Homo sapiens) (UniProt P35869); assay: Induction of AhR degradation in human MCF7 cells assessed as AhR/actin ratio level at 6 uM after 6 hrs by Western blot analysis (reference value: 100%)
[12] = target: T3, Aryl hydrocarbon receptor (Homo sapiens, UniProt P35869); assay: Induction of AhR degradation in human MCF7 cells at 3 to 6 uM after 6 hrs by Western blot analysis; type: cell-based; details: mcf7, 6 h
T3 sequence (P35869 whole entry): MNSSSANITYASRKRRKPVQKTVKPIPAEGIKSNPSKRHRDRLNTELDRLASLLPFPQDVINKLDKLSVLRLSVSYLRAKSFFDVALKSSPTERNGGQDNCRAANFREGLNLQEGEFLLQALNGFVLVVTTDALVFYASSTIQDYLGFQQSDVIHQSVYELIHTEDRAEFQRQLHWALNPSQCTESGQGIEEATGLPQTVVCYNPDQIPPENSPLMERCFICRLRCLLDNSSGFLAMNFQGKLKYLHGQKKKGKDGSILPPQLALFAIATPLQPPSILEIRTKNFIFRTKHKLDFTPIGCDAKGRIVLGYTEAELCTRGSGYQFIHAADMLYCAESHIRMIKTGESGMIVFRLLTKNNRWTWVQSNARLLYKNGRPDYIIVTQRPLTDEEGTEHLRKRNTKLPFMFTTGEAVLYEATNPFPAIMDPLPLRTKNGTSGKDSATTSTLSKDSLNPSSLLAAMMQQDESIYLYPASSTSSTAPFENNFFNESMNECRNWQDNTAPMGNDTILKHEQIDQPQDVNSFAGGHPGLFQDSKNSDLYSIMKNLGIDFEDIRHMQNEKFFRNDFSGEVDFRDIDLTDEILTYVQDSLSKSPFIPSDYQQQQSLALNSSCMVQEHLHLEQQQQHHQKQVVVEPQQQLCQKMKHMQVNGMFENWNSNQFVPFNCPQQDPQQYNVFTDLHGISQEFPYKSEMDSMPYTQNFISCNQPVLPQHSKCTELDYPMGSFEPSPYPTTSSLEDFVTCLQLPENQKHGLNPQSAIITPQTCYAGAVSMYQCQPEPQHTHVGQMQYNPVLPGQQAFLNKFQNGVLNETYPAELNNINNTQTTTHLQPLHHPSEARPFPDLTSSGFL

[13] = target: T1, Estrogen receptor (Homo sapiens); assay: Induction of ERalpha degradation in human MCF7 cells assessed as ERalpha/actin ratio level at 4.5 uM after 6 hrs by Western blot analysis (reference value: 100%); type: cell-based
[14] = target: Baculoviral IAP repeat-containing protein 2 (Homo sapiens) (UniProt Q13490); assay: Induction of cIAP1 degradation in human MCF7 cells after 6 hrs by Western blot analysis; type: cell-based
Chain of Baculoviral IAP repeat-containing protein 2 (Homo sapiens) (Q13490 whole entry): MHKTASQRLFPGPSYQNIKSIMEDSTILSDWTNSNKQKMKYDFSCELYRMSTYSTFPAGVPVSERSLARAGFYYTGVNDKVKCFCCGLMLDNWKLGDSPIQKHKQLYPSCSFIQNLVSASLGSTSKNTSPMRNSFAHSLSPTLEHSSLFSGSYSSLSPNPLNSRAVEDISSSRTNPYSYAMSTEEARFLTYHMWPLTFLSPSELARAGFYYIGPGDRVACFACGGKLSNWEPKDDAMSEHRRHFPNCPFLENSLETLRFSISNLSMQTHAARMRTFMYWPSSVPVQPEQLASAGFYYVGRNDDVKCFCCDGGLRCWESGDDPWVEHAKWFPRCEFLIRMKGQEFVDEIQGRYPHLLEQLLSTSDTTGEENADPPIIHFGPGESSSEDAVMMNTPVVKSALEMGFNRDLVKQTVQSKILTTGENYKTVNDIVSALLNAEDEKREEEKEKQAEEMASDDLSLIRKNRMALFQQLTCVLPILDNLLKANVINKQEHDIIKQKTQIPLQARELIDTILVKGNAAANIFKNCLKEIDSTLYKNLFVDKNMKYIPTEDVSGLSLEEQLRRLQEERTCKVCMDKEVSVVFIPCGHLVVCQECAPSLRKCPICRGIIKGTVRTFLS

[15] = target: T2, Androgen receptor (Homo sapiens); assay: Induction of AR degradation in human MCF7 cells assessed as AR/actin ratio level at 4.5 uM after 6 hrs by Western blot analysis (reference value: 100%); type: cell-based
[16] = system: MCF7; assay: Cytotoxicity against human MCF7 cells at 20 uM after 6 hrs; type: cell-based; details: mcf7, 6 h
[17] = target: T1, Estrogen receptor (Homo sapiens); assay: Induction of ERalpha degradation in human MCF7 cells at 10 to 20 uM after 6 hrs by Western blot analysis; type: cell-based
[18] = target: T2, Androgen receptor (Homo sapiens); assay: Induction of AR degradation in human MCF7 cells assessed as AR/lamin ratio level at 10 uM after 6 hrs by Western blot analysis (reference value: 100%); type: cell-based
[19] = target: T2, Androgen receptor (Homo sapiens); assay: Induction of AR degradation in human MCF7 cells at 10 to 20 uM after 6 hrs by Western blot analysis; type: cell-based
[20] = target: T3, Aryl hydrocarbon receptor; assay: Induction of AhR degradation in human MCF7 cells assessed as AhR/lamin ratio level at 20 uM after 6 hrs by Western blot analysis (reference value: 100%); type: cell-based; details: mcf7, 6 h
[21] = target: Baculoviral IAP repeat-containing protein 2 (Homo sapiens) (UniProt Q13490); assay: Induction of cIAP1 degradation in human MCF7 cells at 10 to 20 uM after 6 hrs by Western blot analysis in presence of MG132; type: cell-based
[22] = target: T1, Estrogen receptor (Homo sapiens); assay: Induction of ERalpha degradation in human MCF7 cells at 10 to 20 uM after 6 hrs by Western blot analysis in presence of MG132; type: cell-based
[23] = target: T2, Androgen receptor (Homo sapiens); assay: Induction of AR degradation in human MCF7 cells at 10 to 20 uM after 6 hrs by Western blot in presence of MG132; type: cell-based
[24] = target: T3, Aryl hydrocarbon receptor; assay: Induction of AhR degradation in human MCF7 cells at 10 to 20 uM after 6 hrs by Western blot analysis; type: cell-based; details: mcf7, 6 h
[25] = target: T3, Aryl hydrocarbon receptor; assay: Induction of AhR degradation in human MCF7 cells assessed as AhR/lamin ratio level at 10 uM after 6 hrs by Western blot analysis (reference value: 100%); type: cell-based; details: mcf7, 6 h
[26] = target: T2, Androgen receptor (Homo sapiens); assay: Induction of AR degradation in human MCF7 cells assessed as AR/lamin ratio level at 20 uM after 6 hrs by Western blot analysis (reference value: 100%); type: cell-based
[27] = target: T1, Estrogen receptor (Homo sapiens); assay: Induction of ERalpha degradation in human MCF7 cells assessed as ERalpha/lamin ratio level at 10 uM after 6 hrs by Western blot analysis (reference value: 100%); type: cell-based
[28] = target: T1, Estrogen receptor (Homo sapiens); assay: Induction of ERalpha degradation in human MCF7 cells assessed as ERalpha/lamin ratio level at 20 uM after 6 hrs by Western blot analysis (reference value: 100%); type: cell-based

- Activity [1]: Dose-dependent effect
- Activity [2]: 77%
- Activity [3]: inactive
- Activity [4]: 77%
- Activity [5]: 57%
- Activity [6]: Active
- Activity [7]: 173%
- Activity [8]: 178%
- Activity [10]: 87%
- Activity [11]: 137%
- Activity [12]: Not Active
- Activity [13]: 87%
- Activity [14]: Dose-dependent effect
- Activity [15]: 72%
Structure (SMILES): CC[C@H](C)[C@H]1NC(=O)[C@@H](NC(=O)[C@@H](N)CCCCNC(=O)COCCOCCNC(=O)COCCOCCNC(=O)[C@@H](NC(=O)[C@@H]2CCCN2C(=O)[C@H](NC(=O)[C@H](C)NC)C2CCCCC2)C(c2ccccc2)c2ccccc2)CSSC[C@H](C(=O)N[C@H](CCCNC(=N)N)C(=O)N[C@H](CC(C)(C)C)C(=O)N[C@H](CC(C)C)C(=O)N[C@H](CCC(N)=O)C(=O)NCC(=O)NCC(=O)NCC(=O)N[C@H](CCCNC(=N)N)C(=O)N[C@H](CCCNC(=N)N)C(=O)N[C@H](CCCNC(=N)N)C(=O)N[C@H](CCCNC(=N)N)C(=O)N[C@H](CCCNC(=N)N)C(=O)N[C@H](CCCNC(=N)N)C(=O)N[C@@H](CCCNC(=N)N)C(N)=O)NC(=O)[C@@H](CC(C)C)NC1=O
- Activity [9]: Toxic

- Activity [17]: Active
- Activity [18]: 77%
- Activity [19]: Active
- Activity [20]: 98%
- Activity [21]: inactive
- Activity [22]: inactive
- Activity [23]: inactive
- Activity [24]: Not Active
- Activity [25]: 109%
- Activity [26]: 54%
- Activity [27]: 82%
- Activity [28]: 64%
Structure (SMILES): CC[C@@H](C)[C@@H]1NC(=O)[C@H](NC(=O)[C@H](N)CCCCNC(=O)CCNC(=O)CCNC(=O)CCNC(=O)CCNC(=O)CCNC(=O)[C@H](NC(=O)[C@H]2CCCN2C(=O)[C@@H](NC(=O)[C@@H](C)NC)C2CCCCC2)C(c2ccccc2)c2ccccc2)CSSC[C@@H](C(=O)N[C@@H](CCCNC(=N)N)C(=O)N[C@@H](CC(C)(C)C)C(=O)N[C@@H](CC(C)C)C(=O)N[C@@H](CCC(N)=O)C(=O)NCC(=O)NCC(=O)NCC(=O)N[C@@H](CCCNC(=N)N)C(=O)N[C@@H](CCCNC(=N)N)C(=O)N[C@@H](CCCNC(=N)N)C(=O)N[C@@H](CCCNC(=N)N)C(=O)N[C@@H](CCCNC(=N)N)C(=O)N[C@@H](CCCNC(=N)N)C(=O)N[C@H](CCCNC(=N)N)C(N)=O)NC(=O)[C@H](CC(C)C)NC1=O
- Activity [16]: Non-toxic
